Among the data in ChEMBL document CHEMBL1135617, “Dicarboxylic acid bis(L-prolyl-pyrrolidine) amides as prolyl oligopeptidase inhibitors” (J Med Chem, 2002) are IC50 values, retold here.

The target of experiment [1] is T1, Prolyl endopeptidase (Sus scrofa, UniProt P23687). Nature of the experiment: In vitro inhibitory activity against prolyl oligopeptidase (POP) from pig brain; value ranges from (38-110).
Experiment [2] has as its target T1, Prolyl endopeptidase.
The target of experiment [3] is T1, Prolyl endopeptidase. Nature of the experiment: In vitro inhibitory activity against prolyl oligopeptidase (POP) from pig brain; value ranges from (59 - 100).
Experiment [4] has as its target T1, Prolyl endopeptidase. Nature of the experiment: In vitro inhibitory activity against prolyl oligopeptidase (POP) from pig brain; value ranges from (7800-54000).
Experiment [5] has as its target T1, Prolyl endopeptidase. Briefly: In vitro inhibitory activity against prolyl oligopeptidase (POP) from pig brain; value ranges from (44-110).
The target in experiment [6] is T1, Prolyl endopeptidase. Nature of the experiment: In vitro inhibitory activity against prolyl oligopeptidase (POP) from pig brain; value ranges from (72-92).

T1 sequence (P23687 whole entry): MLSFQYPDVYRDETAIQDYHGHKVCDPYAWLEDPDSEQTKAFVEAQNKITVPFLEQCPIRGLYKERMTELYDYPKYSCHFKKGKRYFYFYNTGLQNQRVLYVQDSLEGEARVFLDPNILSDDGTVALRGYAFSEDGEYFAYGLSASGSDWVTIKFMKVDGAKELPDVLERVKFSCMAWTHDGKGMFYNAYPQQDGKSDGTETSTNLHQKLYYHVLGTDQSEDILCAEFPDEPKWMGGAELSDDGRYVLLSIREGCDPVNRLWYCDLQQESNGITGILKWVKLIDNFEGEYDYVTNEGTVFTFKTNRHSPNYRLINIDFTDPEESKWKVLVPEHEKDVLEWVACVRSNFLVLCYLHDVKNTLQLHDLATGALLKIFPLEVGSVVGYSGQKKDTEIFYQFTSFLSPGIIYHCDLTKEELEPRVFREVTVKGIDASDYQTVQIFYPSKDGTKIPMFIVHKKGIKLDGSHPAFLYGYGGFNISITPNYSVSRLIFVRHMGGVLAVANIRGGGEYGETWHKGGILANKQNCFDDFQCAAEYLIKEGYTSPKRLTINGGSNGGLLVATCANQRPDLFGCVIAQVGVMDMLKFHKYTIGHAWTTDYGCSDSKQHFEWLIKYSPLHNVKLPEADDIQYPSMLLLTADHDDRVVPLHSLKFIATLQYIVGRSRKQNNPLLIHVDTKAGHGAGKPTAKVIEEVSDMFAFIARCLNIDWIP

The IC50 is the concentration needed to halve the response being measured. A higher IC50 goes with a need for much substance. Compound `O=C([C@@H]1CCCN1C(=O)c1ccccc1)N1CCCC1` displayed an IC50 at Prolyl endopeptidase [1] of 66 nM.

On to `O=C(CO)[C@@H]1CCCN1C(=O)[C@@H]1CCCN1C(=O)c1cccc(C(=O)N2CCCC2C(=O)N2CCCC2)c1` (stereo partly specified), for which the IC50 against Prolyl endopeptidase [2] is 0.39 nM. This counts as sub-nanomolar.

As for `O=C(C1CCCN1C(=O)CCC(=O)N1CCC[C@H]1C(=O)N1CCCC1)N1CCCC1` (stereo partly specified), at Prolyl endopeptidase [3], the IC50 turned out to be 77 nM.

For the compound `O=C(C1CCCN1C(=O)c1ccccc1C(=O)N1CCC[C@H]1C(=O)N1CCCC1)N1CCCC1` (stereo partly specified), at Prolyl endopeptidase [4], the IC50 came to 21000 nM. With `O=C(C1CCCN1C(=O)CCCCC(=O)N1CCC[C@H]1C(=O)N1CCCC1)N1CCCC1` (stereo partly specified), on Prolyl endopeptidase [5], the IC50 turned out to be 68 nM. On Prolyl endopeptidase [6], `O=C(C1CCCN1C(=O)c1ccc(C(=O)N2CCC[C@H]2C(=O)N2CCCC2)cc1)N1CCCC1` (stereo partly specified) gave an IC50 of 81 nM. This lies in the double-digit nanomolar range.
